Article PMC11758220, “Identification of a Privileged Scaffold for Inhibition of Sterol Transport Proteins through the Synthesis and Ring Distortion of Diverse, Pseudo-Natural Products” (ACS Central Science, 2025)
pKd: −log10 of the molar value.

Assays:
Aster-A = target: T1, Aster-A (Homo sapiens, UniProt Q96CP6); test: Differential scanning fluorimetry (DSF), Aster-A; type: binding; conditions: maximal thermal shift
T1 construct: Aster-A(359-547); GST (PreScission-cleavable) (N, cleaved yes); made in house; host or cells: E. coli OverExpress C41
T1 sequence (Q96CP6 359-547): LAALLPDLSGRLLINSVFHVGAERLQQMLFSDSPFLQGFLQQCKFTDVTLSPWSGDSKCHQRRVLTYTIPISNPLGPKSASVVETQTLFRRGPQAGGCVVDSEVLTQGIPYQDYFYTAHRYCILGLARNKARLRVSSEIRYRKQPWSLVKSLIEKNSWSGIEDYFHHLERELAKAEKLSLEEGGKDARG
Excerpt: Protein expression constructs
Human ASTER domains of Aster-A(359-547), -B(364-552) and -C(318-504) were subcloned into a pGEX-6p-2rbs vector, thus introducing the cloning artifact ‘GPLGS’.3 The pGEX-6P-1-GST-OSBP(377- […]
a gift from James H. Hurley (University of California).4 The pHIS_2His6_Thrombin_STARD4(2-205;C75S) plasmid was a gift from Young Jun Im (Chonnam National University).5 STARD5A was a gift from Nicola Burgess-Brown (Addgene plasmid #42392; http://n2t.net/addgene:42392; […]
Protein expression and purification […]
vectors including an N-terminal PreScission-cleavable glutathione S-transferase (GST)-tag were expressed in Escherichia coli (E. coli) OverExpress C41 in Terrific Broth (TB) medium for 16 h at 18 °C after the induction with 0.1 mM isopropyl β-D-1-thiogalactopyranoside (IPTG). Cells were harvested at 3500 × g for 15 minutes and lysed by sonication in buffer containing 50 mM HEPES pH 7.5, 300 mM NaCl, 10 %v/v glycerol, 5 mM dithiothreitol (DTT), 0.1 %v/v Triton X-100 and protease inhibitor mix HP plus (Serva). The lysate was purified by affinity chromatography on a GSTrap FF column (Cytiva) using an ÄKTA Start (Cytiva) in buffer containing 50 mM HEPES pH 7.5, 300 mM NaCl, 10 %v/v glycerol, 5 mM DTT and 0.01 %v/v Triton X-100. The GST-tag was cleaved overnight on the column at 4 °C. […]

STARD3 = target: T2, STARD3 (Homo sapiens, UniProt Q14849); parameters: method as in Depta et al.[43]; conditions: data reproduced; ref Depta et al.[43]; read-out: STARD3 Kd,app (DSF); cited from earlier work
T2 construct: STARD3(216-444); made in house; host or cells: E. coli BL21(DE3)
T2 sequence (Q14849 216-444): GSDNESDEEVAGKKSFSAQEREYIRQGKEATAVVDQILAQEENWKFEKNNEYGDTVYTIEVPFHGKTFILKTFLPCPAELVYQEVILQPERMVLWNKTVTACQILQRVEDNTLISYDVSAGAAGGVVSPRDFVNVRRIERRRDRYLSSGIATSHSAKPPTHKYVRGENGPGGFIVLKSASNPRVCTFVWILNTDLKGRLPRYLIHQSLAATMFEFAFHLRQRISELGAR

Structure (SMILES)	Aster-A (DSF) ΔTmmax (Aster-A) [°C]	pKd (STARD3)
CC12CCC3CC1CCC21C(=Nc2ccc(N4CCOCC4)cc21)O3 (single isomer, unassigned; (-)) [(−)-19a]	7.5	
CC(C)(C)OC(=O)N1CCN(c2ccc3c(c2)C24CCC5CC(CCC52C)OC4=N3)CC1 (stereo not drawn) [Compound 19e]	11.8	
CCN(CC)CCO[C@H]1CC[C@@]2(C)C(=CC[C@@H]3[C@@H]2CC[C@]2(C)C(=O)CC[C@@H]32)C1 [Compound U18666A, reference compound]		< 4.52
